Measured values: ChEMBL document CHEMBL5356945, “Discovery of PFI-6, a small-molecule chemical probe for the YEATS domain of MLLT1 and MLLT3” (Bioorg Med Chem Lett, 2024)
pIC50, pKi: −log10 of the molar value. ≈ marks a conversion by molar mass, not a printed value.

Assays:
Protein AF-9 [1] = biological target: T1, Protein AF-9 (Homo sapiens, UniProt P42568); experiment: Inhibition of MLLT3 YD domain (unknown origin) assessed as disruption of histone peptide binding using histone peptide as substrate by HTRF assay
T1 sequence (P42568 whole entry): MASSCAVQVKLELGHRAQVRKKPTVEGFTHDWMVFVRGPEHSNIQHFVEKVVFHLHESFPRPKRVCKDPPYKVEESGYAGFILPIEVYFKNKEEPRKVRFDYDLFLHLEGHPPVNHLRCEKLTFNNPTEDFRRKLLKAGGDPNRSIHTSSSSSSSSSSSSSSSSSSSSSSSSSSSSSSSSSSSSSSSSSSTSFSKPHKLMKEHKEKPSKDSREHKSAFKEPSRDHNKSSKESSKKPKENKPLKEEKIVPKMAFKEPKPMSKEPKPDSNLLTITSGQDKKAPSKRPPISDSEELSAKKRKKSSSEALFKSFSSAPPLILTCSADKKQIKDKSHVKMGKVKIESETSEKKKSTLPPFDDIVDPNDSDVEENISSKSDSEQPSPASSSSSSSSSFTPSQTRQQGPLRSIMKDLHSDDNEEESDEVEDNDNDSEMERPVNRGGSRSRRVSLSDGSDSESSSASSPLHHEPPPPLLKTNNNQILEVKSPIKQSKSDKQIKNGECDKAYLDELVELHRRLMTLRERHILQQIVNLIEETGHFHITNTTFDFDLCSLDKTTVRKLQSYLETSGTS

[2] = biological target: T2, YEATS domain-containing protein 2 (Homo sapiens, UniProt Q9ULM3); experiment: Inhibition of YEATS2 YD domain (unknown origin) assessed as disruption of histone peptide binding using histone peptide as substrate by HTRF assay
T2 sequence (Q9ULM3 whole entry): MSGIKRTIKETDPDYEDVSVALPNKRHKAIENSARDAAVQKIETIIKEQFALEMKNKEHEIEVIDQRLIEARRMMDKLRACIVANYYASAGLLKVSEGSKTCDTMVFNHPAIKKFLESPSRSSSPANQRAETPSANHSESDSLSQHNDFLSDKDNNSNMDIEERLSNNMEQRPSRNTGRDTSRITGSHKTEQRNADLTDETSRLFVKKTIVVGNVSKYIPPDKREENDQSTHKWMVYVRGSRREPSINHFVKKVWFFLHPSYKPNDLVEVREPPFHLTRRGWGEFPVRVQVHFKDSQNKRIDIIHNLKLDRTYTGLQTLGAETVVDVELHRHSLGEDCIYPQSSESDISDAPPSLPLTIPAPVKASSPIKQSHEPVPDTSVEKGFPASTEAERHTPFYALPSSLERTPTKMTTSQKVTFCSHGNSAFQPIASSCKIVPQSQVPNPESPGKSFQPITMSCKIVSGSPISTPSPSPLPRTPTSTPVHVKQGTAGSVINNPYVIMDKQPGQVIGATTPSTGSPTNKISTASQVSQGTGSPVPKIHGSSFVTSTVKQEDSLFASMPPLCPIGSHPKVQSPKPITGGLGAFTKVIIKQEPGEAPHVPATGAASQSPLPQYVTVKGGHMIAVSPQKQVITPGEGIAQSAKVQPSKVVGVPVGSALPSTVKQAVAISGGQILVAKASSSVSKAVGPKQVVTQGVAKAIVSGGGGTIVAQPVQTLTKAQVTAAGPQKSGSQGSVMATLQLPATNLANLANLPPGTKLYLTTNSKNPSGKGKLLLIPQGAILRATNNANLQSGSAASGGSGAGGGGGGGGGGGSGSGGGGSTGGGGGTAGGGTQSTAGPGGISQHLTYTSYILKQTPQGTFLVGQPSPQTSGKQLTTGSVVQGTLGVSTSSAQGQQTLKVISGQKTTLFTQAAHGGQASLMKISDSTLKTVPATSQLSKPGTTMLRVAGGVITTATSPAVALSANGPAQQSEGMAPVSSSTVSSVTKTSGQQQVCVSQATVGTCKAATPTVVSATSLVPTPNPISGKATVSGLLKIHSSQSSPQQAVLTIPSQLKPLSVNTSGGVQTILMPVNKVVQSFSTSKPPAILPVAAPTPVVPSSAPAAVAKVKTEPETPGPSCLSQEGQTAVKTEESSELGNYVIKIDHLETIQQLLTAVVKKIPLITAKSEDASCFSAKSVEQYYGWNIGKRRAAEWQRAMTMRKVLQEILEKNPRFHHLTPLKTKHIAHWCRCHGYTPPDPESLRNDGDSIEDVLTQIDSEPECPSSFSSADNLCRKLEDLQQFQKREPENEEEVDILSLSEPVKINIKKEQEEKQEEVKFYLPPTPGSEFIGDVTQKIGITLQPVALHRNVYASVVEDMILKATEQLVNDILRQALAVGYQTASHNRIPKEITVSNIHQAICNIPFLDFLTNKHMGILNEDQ

Protein ENL [3] = biological target: T3, Protein ENL (Homo sapiens, UniProt Q03111); experiment: Inhibition of MLLT1 YD domain (unknown origin) assessed as disruption of histone peptide binding using histone peptide as substrate by HTRF assay
T3 sequence (Q03111 whole entry): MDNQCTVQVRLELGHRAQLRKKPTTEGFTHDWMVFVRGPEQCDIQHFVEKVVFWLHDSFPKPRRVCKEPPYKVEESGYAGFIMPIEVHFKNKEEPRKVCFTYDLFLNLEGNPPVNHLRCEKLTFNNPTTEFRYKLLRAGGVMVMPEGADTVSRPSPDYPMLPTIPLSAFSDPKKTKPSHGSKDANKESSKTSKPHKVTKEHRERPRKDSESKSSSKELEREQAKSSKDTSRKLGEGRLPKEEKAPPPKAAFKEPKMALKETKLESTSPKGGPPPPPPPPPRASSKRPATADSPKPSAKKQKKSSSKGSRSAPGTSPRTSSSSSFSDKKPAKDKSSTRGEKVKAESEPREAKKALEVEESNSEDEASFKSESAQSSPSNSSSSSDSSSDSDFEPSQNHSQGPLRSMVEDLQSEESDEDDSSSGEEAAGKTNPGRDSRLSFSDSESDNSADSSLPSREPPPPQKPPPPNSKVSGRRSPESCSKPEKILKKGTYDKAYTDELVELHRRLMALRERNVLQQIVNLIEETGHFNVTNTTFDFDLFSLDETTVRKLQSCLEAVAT

[4] = biological target: T4, YEATS domain-containing protein 4 (Homo sapiens, UniProt O95619); experiment: Inhibition of YEATS4 YD domain (unknown origin) assessed as disruption of histone peptide binding using histone peptide as substrate by HTRF assay
Protein ENL [5] = biological target: T3, Protein ENL; experiment: Inhibition of His-tagged MLLT1 YD domain (unknown origin) assessed as disruption of protein binding to histone peptide using biotinylated histone peptide as substrate by AlphaScreen assay
Protein AF-9 [6] = biological target: T1, Protein AF-9; experiment: Binding affinity to MLLT3 in human HEK293 cells by NanoBRET assay; type: cell-based
[7] = biological target: T5, Protein AF-9 (Homo sapiens) (UniProt P42568)
T5 sequence (whole entry): T1 sequence (P42568 whole entry)
Description: Binding affinity to MLLT3 YD domain (unknown origin) assessed as change in melting temperature by thermal shift assay

[8] = Metabolic stability in human hepatocytes assessed as apparent intrinsic clearance measured per million cells; type: ADME, cell-based, Hepatocyte
[9] = Kinetic solubility of compound at pH 7.4; type: physicochemical; details: buffer, read-out: Kinetic_solubility
[10] = Cytotoxicity against human THLE cells assessed as decrease in cellular ATP by CellTiter-Glo assay; type: toxicity, cell-based
[11] = biological target: T6, Protein ENL (Homo sapiens) (UniProt Q03111); experiment: Binding affinity to MLLT1 YD domain (unknown origin) assessed as change in melting temperature by thermal shift assay
T6 sequence (whole entry): T3 sequence (Q03111 whole entry)

[12] = Lipophilicity, logD of the compound by shake flask method; type: physicochemical; details: octanol/water
[13] = biological target: T7, YEATS domain-containing protein 2 (Homo sapiens) (UniProt Q9ULM3); experiment: Binding affinity to YEATS2 YD domain (unknown origin) assessed as change in melting temperature by thermal shift assay
T7 sequence (whole entry): T2 sequence (Q9ULM3 whole entry)

[14] = biological target: T4, YEATS domain-containing protein 4; experiment: Binding affinity to YEATS4 YD domain (unknown origin) assessed as change in melting temperature by thermal shift assay
[15] = biological target: Voltage-gated inwardly rectifying potassium channel KCNH2 (Homo sapiens, UniProt Q12809); experiment: Inhibition of human ERG assessed as inhibition constant by patch-clamp assay; type: toxicity
[16] = Passive apparent permeability in dog MDCK cells; type: ADME, cell-based, Canis lupus familiaris
[17] = biological target: T6, Protein ENL (Homo sapiens); experiment: Inhibition of His-tagged MLLT1 YD domain (unknown origin) assessed as disruption of protein binding to histone peptide using biotinylated histone peptide as substrate at 100 uM by AlphaScreen assay

T4 sequence (O95619 whole entry, the tested form may be a part): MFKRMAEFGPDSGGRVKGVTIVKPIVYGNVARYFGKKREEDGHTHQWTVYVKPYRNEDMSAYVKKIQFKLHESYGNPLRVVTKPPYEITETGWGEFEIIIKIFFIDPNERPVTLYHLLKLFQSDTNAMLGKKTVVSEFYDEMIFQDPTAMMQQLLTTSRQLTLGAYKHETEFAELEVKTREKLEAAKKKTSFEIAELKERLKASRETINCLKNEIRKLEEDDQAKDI
Voltage-gated inwardly rectifying potassium channel KCNH2, sequence (Q12809 whole entry): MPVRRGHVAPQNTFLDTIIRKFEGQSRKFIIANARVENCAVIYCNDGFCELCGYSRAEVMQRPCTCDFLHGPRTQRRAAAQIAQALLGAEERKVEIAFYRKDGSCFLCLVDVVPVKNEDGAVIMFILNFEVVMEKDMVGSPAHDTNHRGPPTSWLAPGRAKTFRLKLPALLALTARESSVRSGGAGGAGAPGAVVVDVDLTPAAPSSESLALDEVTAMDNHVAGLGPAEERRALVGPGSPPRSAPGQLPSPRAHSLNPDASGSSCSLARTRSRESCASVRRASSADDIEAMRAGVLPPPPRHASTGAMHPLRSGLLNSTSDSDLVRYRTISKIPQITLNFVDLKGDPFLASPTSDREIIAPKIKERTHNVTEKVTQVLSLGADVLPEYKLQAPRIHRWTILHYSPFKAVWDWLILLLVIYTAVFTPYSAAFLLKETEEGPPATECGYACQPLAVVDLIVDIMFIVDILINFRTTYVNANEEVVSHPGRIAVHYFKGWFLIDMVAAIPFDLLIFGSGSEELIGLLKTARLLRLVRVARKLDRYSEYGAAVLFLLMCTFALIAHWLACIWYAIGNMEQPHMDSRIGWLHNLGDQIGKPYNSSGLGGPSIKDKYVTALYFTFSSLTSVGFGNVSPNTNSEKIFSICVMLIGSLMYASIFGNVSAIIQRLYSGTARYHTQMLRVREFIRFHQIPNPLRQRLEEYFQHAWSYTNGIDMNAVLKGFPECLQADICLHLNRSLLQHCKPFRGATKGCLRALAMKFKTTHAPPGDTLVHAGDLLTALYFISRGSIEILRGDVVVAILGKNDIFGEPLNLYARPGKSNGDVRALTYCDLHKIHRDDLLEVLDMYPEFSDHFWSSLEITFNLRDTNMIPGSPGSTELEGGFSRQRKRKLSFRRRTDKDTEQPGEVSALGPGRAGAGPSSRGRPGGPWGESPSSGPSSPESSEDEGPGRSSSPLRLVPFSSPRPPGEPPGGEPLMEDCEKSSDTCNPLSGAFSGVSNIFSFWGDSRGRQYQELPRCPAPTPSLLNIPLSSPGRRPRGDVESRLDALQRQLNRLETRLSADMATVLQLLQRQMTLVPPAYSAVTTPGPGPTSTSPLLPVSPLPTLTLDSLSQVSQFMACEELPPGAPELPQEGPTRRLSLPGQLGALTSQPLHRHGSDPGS

SMILES	pIC50 (Protein AF-9 [1])	pIC50 [2]	pIC50 (Protein ENL [3])	pIC50 [4]	pIC50 (Protein ENL [5])	also measured
O=C(NC1CCCC1)c1cc(-c2cccc(O)c2Cl)on1	< 4.52	< 4.52	< 4.52	< 4.52	–	–
O=C(NC1CCCC1)c1cn(-c2cccc(O)c2)cn1	6.30	< 4.59	6.01	< 4.52	–	–
CN(C)C(=O)c1ccc(-c2cc(C(=O)NC3CCCC3)no2)cc1O	6.92	< 4.52	6.80	< 4.52	–	–
O=C(NC1CCCC1)c1cc(-c2cc(O)c3cccnc3c2)on1	6.70	< 4.52	6.59	< 4.52	–	–
CN(C)C(=O)c1ccc(-c2cc(C(=O)N(C)C3CCCC3)no2)cc1O	< 4.52	< 4.52	< 4.52	< 4.52	–	pIC50 (Protein AF-9 [6]): < 4.52
O=C(NC1CCCC1)c1cc2cc(F)ccc2[nH]1	–	–	–	–	5.25	–
O=C(NC1CCCC1)c1cc(-c2cccc(O)c2)n[nH]1	5.47	< 4.52	5.60	< 4.52	–	–
O=C(NC1CCCC1)c1ccc2snnc2c1	–	–	–	–	5.52	–
O=C(NC1CCCC1)c1cnn(-c2cccc(O)c2)c1	5.62	< 4.52	5.47	< 4.52	–	–
C[C@H]1CCCN1Cc1nc2cc(NC(=O)c3ccc4c(cnn4C)c3)ccc2[nH]1	–	–	–	–	–	pIC50 (Protein AF-9 [6]): 6.22
CN(C)C(=O)c1ccc(-c2cc(C(=O)N[C@@H]3CCc4ccccc43)no2)cc1O	–	< 4.52	–	< 4.52	–	ΔTm [7]: 5.13 °C; CLH(app) [8]: 43 µL/min; solubility kinetic [9]: 3000 µM (≈ 1170 µg/mL); pIC50 [10]: < 4.00; ΔTm [11]: 3.61 °C; logD [12]: 3.3; ΔTm [13]: 0 °C; ΔTm [14]: -0.02 °C; pKi [15]: < 4.00; Papp [16]: 27 ×10⁻⁶ cm/s
C/C=C/C(=O)NC1CCCC1	–	–	–	–	–	inhibition [17]: 55%

Further lines, with some results ahead:

pIC50 (Protein AF-9 [1])	pIC50 [2]	pIC50 (Protein ENL [3])	pIC50 [4]	pIC50 (Protein ENL [5])	SMILES	also measured
–	–	–	–	4.54	O=C(NC1CC1)c1cc(-c2cccc(O)c2)on1	–
–	–	–	–	5.16	O=C(NC1CCCC1)c1cc(-c2ccc(O)cc2)on1	–
6.20	< 4.52	6.03	< 4.52	5.96	O=C(NC1CCCC1)c1cc(-c2cccc(O)c2)on1	–
–	–	–	–	5.04	CC(C)NC(=O)c1cc(-c2cccc(O)c2)on1	–
–	–	–	–	4.66	O=C(NCC1CC1)c1cc(-c2cccc(O)c2)on1	–
6.30	< 4.52	6.12	< 5.24	–	O=C(NC1CCCC1)c1cc(-c2ccc(Cl)c(O)c2)on1	–
–	–	–	–	< 4.52	CN(C(=O)c1cc(-c2cccc(O)c2)on1)C1CCCC1	–
–	–	–	–	5.94	O=C(NC1CCC1)c1cc(-c2cccc(O)c2)on1	–
